Source: patent publication US20100210602A1, “PhoU (PerF), A P[…] INVOLVED IN [sequence] FORMATION AND TOLERANCE TO MULTIPLE ANTIBIOTICS AND [sequence] AS A DRUG TARGET FOR [sequence] BACTERIA” (priority 2006, published 2010)
Values after ≈ are worked out from the molar mass of the structure shown. Like-named read-outs stand apart in the source and are kept apart here.

Tests used:
Type in all cases: cell-based, M. tuberculosis
PhoY2 mutant [1] = test system: PhoY2 mutant
PhoY1 mutant [2] = test system: PhoY1 mutant
PhoY1 mutant [3] = test system: PhoY1 mutant; remark: listed apart in the source
PhoY2 mutant [4] = test system: PhoY2 mutant; remark: listed apart in the source
PhoY2 mutant [5] = test system: PhoY2 mutant; remark: listed apart in the source
PhoY1 mutant [6] = test system: PhoY1 mutant; remark: listed apart in the source

| SMILES | PhoY2 MIC (PhoY2 mutant [1]) | PhoY1 MIC (PhoY1 mutant [2]) | PhoY2 MIC (PhoY2 mutant [1]; pH 5.6) | PhoY1 MIC (PhoY1 mutant [2]; pH 5.6) | MBC (PhoY1 mutant [3]; pH 5.9) | MIC (PhoY1 mutant [3]; pH 5.9) | CFU/ml 3 day (PhoY2 mutant [4]; 200 μg/ml) | CFU/ml 9 day (PhoY2 mutant [4]; 200 μg/ml) | MBC (PhoY2 mutant [5]; pH 5.9) | MIC (PhoY2 mutant [5]; pH 5.9) | CFU/ml 3 day (PhoY1 mutant [6]; 200 μg/ml) | CFU/ml 9 day (PhoY1 mutant [6]; 200 μg/ml) | MBC (PhoY1 mutant [3]) | MIC (PhoY1 mutant [3]) | CFU/ml 3 day (PhoY2 mutant [4]; 8 μg/ml) | CFU/ml 9 day (PhoY2 mutant [4]; 8 μg/ml) | MBC (PhoY2 mutant [5]) | MIC (PhoY2 mutant [5]) | CFU/ml 3 day (PhoY1 mutant [6]; 8 μg/ml) | CFU/ml 9 day (PhoY1 mutant [6]; 8 μg/ml) |
| --- | --- | --- | --- | --- | --- | --- | --- | --- | --- | --- | --- | --- | --- | --- | --- | --- | --- | --- | --- | --- |
| NNC(=O)c1ccncc1 [INH, isoniazid] | 0.1 µg/mL | 0.1 µg/mL | – | – | – | – | – | – | – | – | – | – | – | – | – | – | – | – | – | – |
| NC(=O)c1cnccn1 [PZA, pyrazinamide] | – | – | 100 µg/mL | 200 µg/mL | 400 µg/mL (≈ 3250 µM) | 200 µg/mL (≈ 1620 µM) | 4.83 × 10^5 CFU/ml | <10^2 CFU/ml | 400 µg/mL (≈ 3250 µM) | 100 µg/mL (≈ 812 µM) | 4.3 × 10^5 CFU/ml | 3.3 × 10^3 CFU/ml | – | – | – | – | – | – | – | – |
| CO[C@H]1/C=C/O[C@@]2(C)Oc3c(C)c(O)c4c(O)c(c(/C=N/N5CCN(C)CC5)c(O)c4c3C2=O)NC(=O)/C(C)=C\C=C\[C@H](C)[C@H](O)[C@@H](C)[C@@H](O)[C@@H](C)[C@H](OC(C)=O)[C@@H]1C [RIF, rifampin] | 0.1 µg/mL | 0.1 µg/mL | – | – | – | – | – | – | – | – | – | – | 0.2 µg/mL (≈ 0.243 µM) | 0.05 µg/mL (≈ 0.0608 µM) | 2.27 × 10^5 CFU/ml | <10^2 CFU/ml | 0.05 µg/mL (≈ 0.0608 µM) | 0.025 µg/mL (≈ 0.0304 µM) | 4.97 × 10^5 CFU/ml | 3.13 × 10^4 CFU/ml |
